From US20100310467A1, “COMPOSITION AND METHOD FOR GENERATING A METABOLIC PROFILE USING 13C-MR DETECTION” (priority 2007, published 2010)
Blank lines part the entries; values can stand above or below the compound they belong to.

Experiments:
[1] = Liquid state polarisation and T1 by liquid state 13C-NMR; format: physicochemical; conditions: for T1: at 9.4 T; for Liquid state polarisation: liquid state 13C-NMR at 400 MHz, after 90 minutes DNP and dissolution
Experimental: In a similar way, the level of polarisation for dissolved hyperpolarised ^13C-fumarate may be determined by liquid state NMR measurements. Again the signal intensity of the dissolved hyperpolarised ^13C-fumarate is compared with the signal intensity of the dissolved ^13C-fumarate before polarisation. The level of polarisation is then calculated from the ratio of the signal intensities of ^13C-fumarate before and after polarisation.
After 90 minutes of dynamic nuclear polarisation, the obtained frozen polarised composition was dissolved in 6 ml of a solution prepared from 5.87 ml water (100 mg/l EDTA added), 133 μl NaOH aq (2 M) and 30 mg NaCl. The pH of the final solution containing the dissolved composition was 7.2. The ^13C1,4-fumarate concentration in said final solution was 50 mM.
Liquid state polarisation was determined by liquid state ^13C-NMR at 400 MHz to be 21%. T1 at 9.4 T was 34 s.

[2] = Solid state polarisation by solid state 13C-NMR after DNP; format: physicochemical; conditions: DNP at 1.2 K, 3.35 T, microwave 93.90 GHz, trityl radical and Gd-chelate
Source text: The level of polarisation may for instance be determined by solid state ^13C-NMR measurements in solid hyperpolarised ^13C-fumarate, e.g. solid hyperpolarised ^13C-fumarate obtained by dynamic nuclear polarisation (DNP) of ^13C-fumarate. The solid state ^13C-NMR measurement preferably consists of a simple pulse-acquire NMR sequence using a low flip angle. The signal intensity of the hyperpolarised ^13C-fumarate in the NMR spectrum is compared with signal intensity of ^13C-fumarate in a NMR spectrum acquired before the polarisation process. The level of polarisation is then calculated from the ratio of the signal intensities of before and after polarisation.
The probe is inserted into the probe-retaining container, submerged in the liquid helium and irradiated with microwaves, preferably at a frequency of about 94 GHz at 200 mW. The level of polarisation may be monitored by for instance acquiring solid state ^13C-NMR signals of the probe during microwave irradiation. Generally, a saturation curve is obtained in a graph showing NMR signal vs. time. […] A solid state ^13C-NMR measurement suitably consists of a simple pulse-acquire NMR sequence using a low flip angle. The signal intensity of the dynamic nuclear polarised nuclei, i.e. ^13C nuclei in ^13C-fumaric acid or ^13C-fumarate is compared with the signal intensity of the ^13C nuclei in ^13C-fumaric acid or ^13C-fumarate before DNP. The polarisation is then calculated from the ratio of the signal intensities before and after DNP.
To a micro test tube was added ^13C1,4-fumaric acid (33.5 mg, 0.284 mmol), TRIS (42 mg, 0.347 mmol) and 22.5 μl water. The test tube was gently heated and sonicated to dissolve all compounds. […] Polarisation was followed by solid state ^13C-NMR and the solid state polarisation was determined to be 25%.

mouse hind leg muscle = test: In vivo 13C-MR spectroscopy of mouse leg before and after ischemic injury; design: species or system C57Bl/6 mouse
Experimental: 175 μl of an imaging medium comprising hyperpolarised sodium ^13C1,4-fumarate which was prepared as described in Example 2 was injected into a C57Bl/6 mouse over a time period of 6 s. The sodium ^13C1,4-fumarate concentration in said imaging medium was about 50 mM. A surface coil (tuned for carbon) was positioned around the leg muscle and signals of ^13C-fumarate and ^13C-malate were detected by ^13C-MR spectroscopy which was carried out in a 2.4 T Bruker spectrometer to generate a metabolic profile. A total of 60 ^13C-spectra were acquired with a repetition time of 2 s and 15 degree RF pulses. Ischemia in a mouse leg muscle was made by strangulation of the hind leg muscle. Following an ischemic period of 30 min the mouse leg muscle was re-perfused for one hour. In this Example, the ^13C-malate signal is approximately 0.5% of the ^13C-fumarate signal in the mouse muscle before ischemia. Following ischemia and 5 min. reperfusion the ^13C-malate signal is approximately 1.5% of the ^13C-fumarate signal. After 60 min. reperfusion the ^13C-malate signal is approximately 4% of the ^13C-fumarate signal. With an identical protocol signals of ^13C-pyruvate and ^13C-lactate were detected by ^13C-MR spectroscopy (polarisation of pyruvate was carried out as described in Example 2 of WO-A-2006/011809).

[3] = test system: subcutaneous mouse lymphoma (EL-4); test: 13C-dynamic imaging of subcutaneous mouse lymphoma with and without etoposide treatment; format: in vivo, C57Bl/6 mouse; conditions: EL-4 tumours, 22-26 hours after etoposide injection, n=5, signal normalized to maximum fumarate signal
Experimental: EL-4 cells were injected into a C57Bl/6 mouse to generate a subcutaneous mouse lymphoma. On day 9 after implantation, the EL4 tumour was imaged. 175 μl of an imaging medium comprising hyperpolarised sodium ^13C1-fumarate-d2 which was prepared as described in Example 3 was injected into the mouse over a time period of 6 s. The sodium ^13C1-fumarate-d2 concentration in said imaging medium was about 20 mM. A surface coil (tuned for carbon) was positioned over the subcutaneous tumour and signals of ^13C-fumarate and ^13C-malate were detected by ^13C-MR spectroscopy which was carried out using a 2.4 T Bruker spectrometer to generate a metabolic profile of the tumour and the surrounding healthy tissue. A slice selective FID was acquired with a 10° RF flip angle, TR=3 s, and 60 repetitions. […] Signal amplitudes for both malate and fumarate were normalized to the maximum fumarate signal and were measured as a function of time. […] Fumarase may be an ideal candidate enzyme for this because it requires no cofactors for its activity (so its activity is solely determined by the availability of the enzyme and the substrate) and the rate of conversion is very fast in vivo (about ˜2-4 fold faster than lactate dehydrogenase) making it a sensitive test.

cells = test: Further in vitro experiments, malate production after etoposide treatment; format: cell-based
[4] = test system: Dicarboxylate Transporter (DCT); test: In vitro hyperpolarized malate production with transporter inhibition; format: cell-based
[5] = test system: MDA-MB-231 cells (human epithelial breast cell adenocarcinoma); test: In vitro 13C-MR detection, conversion of 13C-fumarate to 13C-malate; format: cell-based
Experimental: (§1) 50 μl (2.7 mM in sodium ^13C1-fumarate-d2) of an imaging medium which was prepared according to Example 3 was mixed into 8*10^6 MDA-MB-231 cells (human epithelial breast cell adenocarcinoma). Signals of ^13C-fumarate and ^13C-malate were detected by acquiring a set of ^13C-MR spectra every 5 s with a 15 degree RF pulse. The result is shown in FIG. 1: ^13Cmalate was building up over time. The conversion rate was 70 μmol/min*g soluble protein with a peak ^13C-malate signal after approximately 30 s. With an identical protocol conversion rates were calculated for three other human cancer cell lines, these are compared in Table 1.
(§2) Table. […] Formation of ^13C1,4-malate-d2 from ^13C1-fumarate is calculated for the 4 investigated cell lines (n≧3). […] This cell line is highly invasive and hormone-insensitive and represents a late stage cancer. Formation rate of malate varies greatly between the two prostate cancer lines, with a 7 times higher conversion rate in the more aggressive PC-3 line, compared to DU-145.

PC-3 cells = test: as above; format: cell-based, human
Experimental: as §1, §2

H-EMC-SS cells = test: as above; format: cell-based, human; conditions: n≧3
Experimental: as §1, §2

DU-145 cells = test: as above; format: cell-based, human; conditions: n≧3
Experimental: as §1, §2

solid state polarisation [2]: 41%
Compound: [2H]/C(C(=O)O)=C(/[2H])[13C](=O)O [^13C1-fumaric acid-d2]

T1 [1]: 34 s
Liquid state polarisation [1]: 29%
Compound: O=[13C]([O-])/C=C/[13C](=O)[O-].[Na+].[Na+] [sodium ^13C1,4-fumarate]
13C-malate signal as % of the 13C-fumarate signal (mouse hind leg muscle; 30 min ischemia, 5 min reperfusion): approximately 1.5%
13C-malate signal as % of the 13C-fumarate signal (mouse hind leg muscle; 30 min ischemia, 60 min reperfusion): approximately 4%
13C-malate signal as % of the 13C-fumarate signal (mouse hind leg muscle; mouse muscle before ischemia): approximately 0.5%

T1 [1]: 44 s
Liquid state polarisation [1]: 40%
Compound: [2H]/C(C(=O)[O-])=C(/[2H])[13C](=O)[O-].[Na+].[Na+] [sodium ^13C1-fumarate-d2]
conversion rate (fumarate to malate) ([5]; 8*10^6 MDA-MB-231 cells, 50 μl imaging medium (2.7 mM), FIG. 1): 70 μmol/min*g soluble protein
Malate formation rate ([5]; MDA-MB-231 cells, n≧3): 77 ± 19 μmol min^−1 g^−1 protein
time of peak 13C-malate signal ([5]; MDA-MB-231 cells, spectra every 5 s): approximately 30 s
Malate formation rate (PC-3 cells; PC-3 cells, n≧3): 42 ± 0.5 μmol min^−1 g^−1 protein
conversion rate in PC-3 compared to DU-145 (PC-3 cells; prostate cancer lines PC-3 vs DU-145): 7 times
Malate formation rate (H-EMC-SS cells): 40 ± 14 μmol min^−1 g^−1 protein
Malate formation rate (DU-145 cells): 6 ± 2 μmol min^−1 g^−1 protein

Further lines, the compound ahead of its results:

Compound: O=[13C](O)/C=C/[13C](=O)O [^13C1,4-fumarate]
T1 [1]: 34 s
Liquid state polarisation [1]: 21%

Compound: O=[13C](O)/C=C/[13C](=O)O [^13C1,4-fumaric acid]
solid state polarisation [2]: 30%

Compound: CC(=O)[13C](=O)O [^13C-pyruvate, reference compound]
13C-lactate signal relative to pyruvate signal (mouse hind leg muscle; 60 min reperfusion): back to levels comparable to the healthy muscle
13C-lactate signal relative to pyruvate signal (mouse hind leg muscle; directly after ischemia): increases to above the pyruvate signal
13C-lactate signal as % of the 13C-pyruvate signal (mouse hind leg muscle; healthy muscle): approximately 40%

Compound: COc1cc([C@@H]2c3cc4c(cc3[C@@H](O[C@@H]3O[C@@H]5CO[C@@H](C)O[C@H]5[C@H](O)[C@H]3O)[C@H]3COC(=O)[C@H]23)OCO4)cc(OC)c1O [etoposide]
malate signal compared to untreated tumours [3]: 65%
malate production (cells; after 14 hrs of treatment with etoposide): increase in malate production
malate production (cells; after 16 hrs of treatment with etoposide): further increase

Compound: [Cl-].[Li+] [lithium chloride]
change in hyperpolarized malate production ([4]; provisional experiments with lithium chloride): only a small reduction

Compound: O=C(O)CCC(=O)O [succinate]
change in malate production ([4]; excess (50 mM) of unlabelled, non-hyperpolarized succinate added): only a small reduction

Compound: TRIS-^13C1,4-fumarate
solid state polarisation [2]: 25%
